The source of these data is PubChem BioAssay AID651801 (Broad Institute, 2012).

As usually defined, the AC50 is the midpoint of the concentration-response curve, whichever way the signal moves.

Active and inactive are the calls of the source.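 Rule for the calls: active = signal falling with dose and AC50 at most twice the top valid tested dose; inconclusive = flat fit with inhibition of 30 to 70%, or poor fit; inactive = the rest, plus effects in the rising direction.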

The target of one test is Kelch-like ECH-associated protein 1 (Homo sapiens) (UniProt Q14145). As to the kind of experiment: disruptors of Keap1 Kelch-Nrf2 peptide binding – biochemical, fluorescence polarization, dry powder, set 2, dose response (AID 651801). The following applies: Keap1 Kelch/FITC-Nrf2 peptide fluorescence polarization. Background: Polarisation of emitted light reports the rotation of a fluorescent probe.
Sequence of Kelch-like ECH-associated protein 1 (Homo sapiens) (Q14145 whole entry, looked up): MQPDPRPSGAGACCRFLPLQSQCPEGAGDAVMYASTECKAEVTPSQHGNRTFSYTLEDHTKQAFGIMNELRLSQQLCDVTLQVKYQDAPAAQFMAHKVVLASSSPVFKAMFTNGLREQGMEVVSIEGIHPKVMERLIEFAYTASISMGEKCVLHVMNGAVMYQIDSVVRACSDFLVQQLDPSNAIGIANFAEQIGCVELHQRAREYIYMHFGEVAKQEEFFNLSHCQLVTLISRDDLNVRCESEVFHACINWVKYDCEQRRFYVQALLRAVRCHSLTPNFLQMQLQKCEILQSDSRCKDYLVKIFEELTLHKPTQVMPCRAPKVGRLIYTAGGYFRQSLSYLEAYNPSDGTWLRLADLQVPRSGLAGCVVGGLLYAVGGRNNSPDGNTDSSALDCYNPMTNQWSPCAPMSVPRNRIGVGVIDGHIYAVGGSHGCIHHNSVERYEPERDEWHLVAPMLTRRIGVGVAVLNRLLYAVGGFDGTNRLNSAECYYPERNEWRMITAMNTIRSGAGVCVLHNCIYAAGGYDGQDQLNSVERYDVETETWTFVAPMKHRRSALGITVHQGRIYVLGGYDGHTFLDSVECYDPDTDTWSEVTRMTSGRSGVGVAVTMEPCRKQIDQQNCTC
With `CC(=O)Nc1cc(NS(=O)(=O)c2c(C)cc(C)cc2C)c2ccccc2c1O`, the AC50 was 9.18 µM.

Still in this test, the particulars now being: Keap1 Kelch/FITC-Nrf2 peptide fluorescence polarization; at 50 µM (top of the series).
For `CCOC(=O)C(C(=O)OCC)c1cc(CN2C(=O)c3ccccc3C2=O)c2ccccc2n1`, the “activity change, negative = inhibition” value was “inactive”.

In the case of `O=C(O)[C@H]1CCCC[C@H]1C(=O)N1CCc2ccccc2[C@H]1CNc1nc(Cl)nc2ccccc12`, the “activity change, negative = inhibition” value is “inactive”. With `O=C(NC[C@@H]1c2ccccc2CCN1C(=O)[C@@H]1CCCC[C@@H]1C(=O)O)c1ccccc1`, the “activity change, negative = inhibition” value is “inactive”. In the case of `O=C(O)c1ccccc1C(=O)N1CCc2ccccc2C1CN1C(=O)c2ccccc2C1=O` (configuration not stated), the “activity change, negative = inhibition” value was “inactive”. As for `COC(=O)C1CCCCC1C(=O)N1CCc2ccccc2C1CN1C(=O)c2ccccc2C1=O` (configuration not stated), the “activity change, negative = inhibition” value is “inactive”. Still for that read-out and setting: the entry for `CC(C)CNc1nc(NS(=O)(=O)c2ccccc2)c2ccccc2n1` is “inactive”.
